According to patent publication US20250134809A1, “A PHYTOACTIVE ENCAPSULATED FORMULATION FOR NEURODEGENERATIVE DISEASES” (Gidaa Life Sciences Pvt. Ltd., priority 2022, published 2025):

Tests used:
Assay type in all cases: in vivo, rat
[1] = system: Alzheimer's Disease model (Aluminium Chloride induced), Wistar male rats; assay: Morris water maze in AlCl3-induced Alzheimer's Disease model; details: G3 (Donepezil orally)
Description: (§1) This compound PHY-001 (Named as MAG XXI in Animal study by CEFTE) has also been subjected to in-vivo animal study at the animal study facility attached to SRMC (Sri Ramachandra Medical College) Hospital, Chennai. In this study, the therapeutic efficacy of this compound was evaluated against Alzheimer's Disease model, by inducing Alzheimer's like pathology by intra peritoneal administration of Aluminium Chloride (Established animal model for studying Alzheimer's disease and efficacy evaluation of a therapeutic intervention).
(§2) Based on the pilot study observations, a main study was conducted. Totally 30 Wistar male rats were used for the study. Animals were formed into five groups, Group 1-rats served as a control group, animals in group 2 to 5 were injected with AlCl3 intra-peritoneally once daily for four weeks.
The results of number of times crossed centre at Morris water maze and escape latency which is the […] the animal could find the platform and escape (in 3 minutes), are presented in table 1 & table 2.

[2] = system: Alzheimer's Disease model (Aluminium Chloride induced), Wistar male rats; assay: Passive avoidance test in AlCl3-induced Alzheimer's Disease model; details: G3 (Donepezil orally)
Description: as §1, §2
Significant alteration in dark compartment movement at all weeks is noticed in G2 group when compared to G1 which elucidate the learning memory defect.

[3] = system: Alzheimer's Disease model (Aluminium Chloride induced), Wistar male rats; assay: Elevated plus maze in AlCl3-induced Alzheimer's Disease model; details: G3 (Donepezil orally); for Elevated plus maze: No. of DF (defacation) / Elevated plus maze: No. of UP (urine pool): Latency period 3 minutes
Description: as §1, §2

`COc1cc2c(cc1OC)C(=O)C(CC1CCN(Cc3ccccc3)CC1)C2` (stereo not shown) [Donepezil] was tested, and the “times crossed centre and escape latency when compared to G2” value [1] was “significant elevation”, the “Escape latency (in 3 minutes): No. of times find platform and escape” value ([1]; WK 1) was 3.33 and the “Morris water maze: No. of times crossed center in 1 minute (mean values)” value ([1]; WK 1) was 2.5. The “Escape latency (in 3 minutes): No. of times find platform and escape” value ([1]; WK 2) was 2.67, the “Morris water maze: No. of times crossed center in 1 minute (mean values)” value ([1]; WK 2) was 2.67 and the “Escape latency (in 3 minutes): No. of times find platform and escape” value ([1]; WK 3) was 3.33. The “Morris water maze: No. of times crossed center in 1 minute (mean values)” value ([1]; WK 3) was 2.83, the “Escape latency (in 3 minutes): No. of times find platform and escape” value ([1]; WK 4) was 3.5 and the “Morris water maze: No. of times crossed center in 1 minute (mean values)” value ([1]; WK 4) was 3.33. The “dark compartment movement when compared to G2” value [2] was “significant reversal”, the “Passive avoidance: latency to enter dark chamber (mean values)” value (from here on “Passive avoidance: latency”) ([2]; WK 1) was 31.83 s and the “Passive avoidance: latency” value ([2]; WK 2) was 42 s. The “Passive avoidance: latency” value ([2]; WK 3) was 45.33 s, the “Passive avoidance: latency” value ([2]; WK 4) was 47 s and the “Elevated plus maze: No. of DF (defacation)” value (from here on “Elevated plus maze: No. of DF”) ([3]; WK 1) was 1. The “Elevated plus maze: No. of UP (urine pool)” value (from here on “Elevated plus maze: No. of UP”) ([3]; WK 1) was 0.5, the “Elevated plus maze: No. of DF” value ([3]; WK2) was 0.5 and the “Elevated plus maze: No. of UP” value ([3]; WK2) was 0.17. The “Elevated plus maze: No. of DF” value ([3]; WK 3) was 1.17, the “Elevated plus maze: No. of UP” value ([3]; WK 3) was 1.33 and the “Elevated plus maze: No. of DF” value ([3]; WK 4) was 0.83. The “Elevated plus maze: No. of UP” value ([3]; WK 4) was 1.17, the “Elevated plus maze: No. of entries in Closed arm” value ([3]; WK 1) was 3.5 and the “Elevated plus maze: No. of entries in Open arm” value ([3]; WK 1) was 0.33. The “Elevated plus maze: No. of entries in Closed arm” value ([3]; WK 2) was 4.17, the “Elevated plus maze: No. of entries in Open arm” value ([3]; WK 2) was 0.33 and the “Elevated plus maze: No. of entries in Closed arm” value ([3]; WK 3) was 2.5. For the same molecule, the “Elevated plus maze: No. of entries in Open arm” value ([3]; WK 3) was 0, the “Elevated plus maze: No. of entries in Closed arm” value ([3]; WK 4) was 2.67 and the “Elevated plus maze: No. of entries in Open arm” value ([3]; WK 4) was 1.67. For the same molecule, the “number of entries in open arm and closed arm when compared to G2” value ([3]; week 4) was “significant elevation”.
